{
  "source": "paper PMC5613635",
  "about": "(Biochemistry and Biophysics Reports, 2016)",
  "target": "T1, reconstituted TmAHAS (MI + MS) (Thermotoga maritima, UniProt Q9WZ18)",
  "T1 sequence (Q9WZ18 1-584)": "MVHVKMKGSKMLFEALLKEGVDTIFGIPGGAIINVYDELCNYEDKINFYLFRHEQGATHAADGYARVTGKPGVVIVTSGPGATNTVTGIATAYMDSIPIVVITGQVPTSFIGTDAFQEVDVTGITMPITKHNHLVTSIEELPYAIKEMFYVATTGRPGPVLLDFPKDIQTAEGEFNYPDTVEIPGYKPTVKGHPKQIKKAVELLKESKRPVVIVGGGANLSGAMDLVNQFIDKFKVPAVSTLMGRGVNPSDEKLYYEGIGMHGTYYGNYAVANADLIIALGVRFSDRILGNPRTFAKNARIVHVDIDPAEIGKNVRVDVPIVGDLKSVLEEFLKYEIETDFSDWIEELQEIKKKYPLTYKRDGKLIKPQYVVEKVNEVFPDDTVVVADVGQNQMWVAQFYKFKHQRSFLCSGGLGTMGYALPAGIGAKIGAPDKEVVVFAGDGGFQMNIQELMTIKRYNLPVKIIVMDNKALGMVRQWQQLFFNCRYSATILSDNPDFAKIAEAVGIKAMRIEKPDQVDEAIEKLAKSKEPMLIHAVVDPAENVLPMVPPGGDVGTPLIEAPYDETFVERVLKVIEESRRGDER",
  "T1 sequence (Q9WZ19 1-171 partner)": "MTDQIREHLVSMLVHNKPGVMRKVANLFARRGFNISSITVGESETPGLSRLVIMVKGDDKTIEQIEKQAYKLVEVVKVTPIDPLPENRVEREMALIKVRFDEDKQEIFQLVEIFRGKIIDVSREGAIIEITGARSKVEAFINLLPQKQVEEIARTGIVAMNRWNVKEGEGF",
  "experiment": "acetaldehyde",
  "type": "biochemical",
  "settings": "reconstituted catalytic and regulatory subunits; 80 °C, anaerobic",
  "data": [
    {"smiles": "CC(=O)C(=O)O", "note": "[pyruvate]", "values": [
      {"measurement": "acetaldehyde (PDC) and acetolactate (AHAS) production from pyruvate", "value": "The reconstitution of the enzyme TmAHAS resulted in considerable and reproducible increase of both PDC"}
    ]}
  ]
}
